“And” between values parts separate entries of the source, which are not always exact repeats. Identical values can stand only once. Toxic doses and inconclusive results are not listed. Rule as the data show it: active = T/C of 150% or more; inactive = T/C below 125%.
Tested on: L1210 leukemia ip in BDF1 mice, survival T/C
Test: NCI In Vivo Anticancer Drug Screen. Data for tumor model L1210 Leukemia (intraperitoneal) in B6D2F1 (BDF1) mice
Conditions: endpoint: mean survival time, higher = longer survival
How it was run: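 Tumor was transplanted into mice, which were then dosed with test compound or vehicle alone. Survival was recorded for each group, and the treated figure was expressed relative to the control figure.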

[1] = dose: 100.0 mg/kg/injection, schedule: Q04DX003 (ip), vehicle: saline
[2] = dose: 200.0 mg/kg/injection, schedule: Q04DX003 (ip), vehicle: saline
[3] = dose: 400.0 mg/kg/injection, schedule: Q04DX003 (ip), vehicle: saline
[4] = dose: 50.0 mg/kg/injection, schedule: Q01DX009 (ip), vehicle: saline
[5] = dose: 100.0 mg/kg/injection, schedule: Q01DX009 (ip), vehicle: saline
[6] = dose: 100.0 mg/kg/injection, schedule: Q04DX003 (ip), vehicle: Klucel (hydroxypropylcellulose) (HPC)
[7] = dose: 200.0 mg/kg/injection, schedule: Q04DX003 (ip), vehicle: Klucel (hydroxypropylcellulose) (HPC)
[8] = dose: 400.0 mg/kg/injection, schedule: Q04DX003 (ip), vehicle: Klucel (hydroxypropylcellulose) (HPC)
[9] = dose: 100.0 mg/kg/injection, schedule: Q01DX001 (ip), vehicle: saline
[10] = dose: 200.0 mg/kg/injection, schedule: Q01DX001 (ip), vehicle: saline
[11] = dose: 12.5 mg/kg/injection, schedule: Q04DX003 (ip), vehicle: saline
[12] = dose: 400.0 mg/kg/injection, schedule: Q04DX002 (ip), vehicle: saline with Tween-80
[13] = dose: 100.0 mg/kg/injection, schedule: Q01DX009 (ip), vehicle: Klucel (hydroxypropylcellulose) (HPC)
[14] = dose: 200.0 mg/kg/injection, schedule: Q01DX009 (ip), vehicle: Klucel (hydroxypropylcellulose) (HPC)

Measured: T/C

CN(C)C(=O)Nc1cccc(OC(=O)NC(C)(C)C)c1
inactive: dose: 100.0 mg/kg/injection, schedule: Q01DX009 (ip), vehicle: saline with Tween-80 93 % of control | dose: 200.0 mg/kg/injection, schedule: Q01DX009 (ip), vehicle: saline with Tween-80 87 % of control | dose: 400.0 mg/kg/injection, schedule: Q01DX009 (ip), vehicle: saline with Tween-80 94 % of control

O=C(O)c1cccc2c1C(Br)C(Br)c1ccccc1-2 (stereo unspecified)
inactive: [1] 94 % of control | [2] 94 % of control | [3] 92 % of control

CC(=O)OC12C=C(C)C(C3C(=O)OC(=O)C31)C(C)(C)C2 (stereo unspecified)
inactive: [4] 97 % of control | [5] 92 % of control | dose: 200.0 mg/kg/injection, schedule: Q01DX009 (ip), vehicle: saline 102 % of control

CCCCCCCCCCCC(=O)NC(=S)Nc1ccccc1C(F)(F)F
inactive: [6] 104 % of control | [7] 92 % of control | [8] 92 % of control

O=C(CCl)Nc1ccc(C(=O)O)cc1
inactive: dose: 3.0 mg/kg/injection, schedule: Q01DX Z (ip), vehicle: carboxymethylcellulose (CMC) 96 % of control | dose: 7.0 mg/kg/injection, schedule: Q01DX Z (ip), vehicle: carboxymethylcellulose (CMC) 102 % of control | dose: 15.0 mg/kg/injection, schedule: Q01DX Z (ip), vehicle: carboxymethylcellulose (CMC) 88 % of control | dose: 30.0 mg/kg/injection, schedule: Q01DX Z (ip), vehicle: carboxymethylcellulose (CMC) 104 % of control

O=C1OC2CC3CC2C1C3C(=O)N1CCOCC1 (stereo unspecified)
inactive: [1] 100 % of control and 96 % of control | [2] 91 % of control and 98 % of control | [3] 100 % of control and 98 % of control

CSCSCC(CO)NCc1ccccc1 (stereo unspecified)
inactive: [4] 110 % of control | [9] 97 % of control | [5] 104 % of control | [10] 100 % of control

c1cc[n+](CCSCCSCC[n+]2ccccc2)cc1
inactive: dose: 3.12 mg/kg/injection, schedule: Q01DX009 (ip), vehicle: acetone 97 % of control | dose: 3.12 mg/kg/injection, schedule: Q04DX003 (ip), vehicle: saline 106 % of control | dose: 6.25 mg/kg/injection, schedule: Q01DX009 (ip), vehicle: acetone 95 % of control | dose: 6.25 mg/kg/injection, schedule: Q04DX003 (ip), vehicle: saline 101 % of control | dose: 12.5 mg/kg/injection, schedule: Q01DX001 (ip), vehicle: saline 105 % of control | [11] 97 % of control

c1cc[c]([Ge]([c]2ccccc2)[c]2ccccc2)cc1.c1ccc([Si](c2ccccc2)c2ccccc2)cc1
inactive: dose: 25.6 mg/kg/injection, schedule: Q04DX002 (ip), vehicle: saline with Tween-80 86 % of control | dose: 64.0 mg/kg/injection, schedule: Q04DX002 (ip), vehicle: saline with Tween-80 110 % of control | dose: 160.0 mg/kg/injection, schedule: Q04DX002 (ip), vehicle: saline with Tween-80 100 % of control | [12] 100 % of control

CCOC(=O)C(C#N)C(C)(C[N+](=O)[O-])C1CC1 (stereo unspecified)
inactive: dose: 0.78 mg/kg/injection, schedule: Q04DX003 (ip), vehicle: saline with Tween-80 96 % of control | dose: 1.56 mg/kg/injection, schedule: Q04DX003 (ip), vehicle: saline with Tween-80 101 % of control | dose: 3.13 mg/kg/injection, schedule: Q04DX003 (ip), vehicle: saline with Tween-80 97 % of control

O=C(O)c1ccccc1C(=O)N1CCCC1
inactive: dose: 100.0 mg/kg/injection, schedule: Q04DX002 (ip), vehicle: Klucel (hydroxypropylcellulose) (HPC) 96 % of control | dose: 200.0 mg/kg/injection, schedule: Q04DX002 (ip), vehicle: Klucel (hydroxypropylcellulose) (HPC) 86 % of control | dose: 400.0 mg/kg/injection, schedule: Q04DX002 (ip), vehicle: Klucel (hydroxypropylcellulose) (HPC) 93 % of control

COc1ccc(C(=O)N/N=C/c2ccco2)cc1
inactive: [13] 100 % of control | [14] 86 % of control

O=C(Nc1cccc2ccccc12)c1ccc(C(=O)Nc2cccc3ccccc23)c(C(=O)O)c1
inactive: dose: 50.0 mg/kg/injection, schedule: Q04DX002 (ip), vehicle: gum acacia 94 % of control | dose: 100.0 mg/kg/injection, schedule: Q04DX002 (ip), vehicle: gum acacia 90 % of control | dose: 200.0 mg/kg/injection, schedule: Q04DX002 (ip), vehicle: gum acacia 94 % of control

Nc1ccccc1Oc1ccccc1
inactive: [13] 94 % of control | [6] 97 % of control | [14] 97 % of control | [7] 98 % of control | dose: 400.0 mg/kg/injection, schedule: Q01DX009 (ip), vehicle: Klucel (hydroxypropylcellulose) (HPC) 100 % of control | [8] 101 % of control

Cn1cnccc1=O
inactive: dose: 50.0 mg/kg/injection, schedule: Q01DX009 (ip), vehicle: water 102 % of control | dose: 100.0 mg/kg/injection, schedule: Q01DX009 (ip), vehicle: water 104 % of control | dose: 100.0 mg/kg/injection, schedule: Q04DX003 (ip), vehicle: water 114 % of control | dose: 120.0 mg/kg/injection, schedule: Q04DX003 (ip), vehicle: water 98 % of control | dose: 200.0 mg/kg/injection, schedule: Q01DX009 (ip), vehicle: water 115 % of control | dose: 200.0 mg/kg/injection, schedule: Q04DX003 (ip), vehicle: water 100 % of control and 111 % of control | dose: 333.0 mg/kg/injection, schedule: Q04DX003 (ip), vehicle: water 95 % of control | dose: 400.0 mg/kg/injection, schedule: Q01DX009 (ip), vehicle: water 115 % of control | dose: 400.0 mg/kg/injection, schedule: Q04DX003 (ip), vehicle: water 106 % of control

Cc1nccnc1S(=O)c1ccc(Br)cc1 (stereo unspecified)
inactive: dose: 100.0 mg/kg/injection, schedule: Q01DX001 (ip), vehicle: Klucel (hydroxypropylcellulose) (HPC) 98 % of control | dose: 200.0 mg/kg/injection, schedule: Q01DX001 (ip), vehicle: Klucel (hydroxypropylcellulose) (HPC) 95 % of control | dose: 400.0 mg/kg/injection, schedule: Q01DX001 (ip), vehicle: Klucel (hydroxypropylcellulose) (HPC) 92 % of control

Cc1cccc(-c2nc3ncnc(N)c3[nH]2)c1
inactive: dose: 6.25 mg/kg/injection, schedule: Q01DX001 (ip), vehicle: saline with Tween-80 95 % of control | dose: 12.5 mg/kg/injection, schedule: Q01DX001 (ip), vehicle: saline with Tween-80 97 % of control | dose: 25.0 mg/kg/injection, schedule: Q01DX001 (ip), vehicle: saline with Tween-80 101 % of control

C1CCC2=NCCCN2CC1
inactive: dose: 5.0 mg/kg/injection, schedule: Q01DX001 (ip), vehicle: saline 101 % of control | dose: 10.0 mg/kg/injection, schedule: Q01DX001 (ip), vehicle: saline 101 % of control | dose: 20.0 mg/kg/injection, schedule: Q01DX001 (ip), vehicle: saline 103 % of control | dose: 40.0 mg/kg/injection, schedule: Q01DX001 (ip), vehicle: saline 97 % of control

Nc1nc2nc(-c3ccc([N+](=O)[O-])cc3)nc(N)c2nc1-c1ccc(N(CCO)CCO)cc1
inactive: [9] 90 % of control | [10] 95 % of control | dose: 400.0 mg/kg/injection, schedule: Q01DX001 (ip), vehicle: saline 95 % of control

CCOC(=O)C(C/C=C/c1ccccc1)C(C)=O (stereo unspecified)
inactive: dose: 100.0 mg/kg/injection, schedule: Q04DX002 (ip), vehicle: saline with Tween-80 90 % of control | dose: 200.0 mg/kg/injection, schedule: Q04DX002 (ip), vehicle: saline with Tween-80 97 % of control | [12] 90 % of control

C(=Nc1ccc2c(c1)Cc1ccccc1-2)c1ccccc1
inactive: [13] 104 % of control | [6] 100 % of control | [14] 96 % of control | [7] 95 % of control | [8] 103 % of control

CCN1CCC(CCOC)(CN2c3ccccc3Sc3ccccc32)C1 (stereo unspecified)
inactive: [11] 95 % of control | dose: 25.0 mg/kg/injection, schedule: Q04DX003 (ip), vehicle: saline 97 % of control | dose: 50.0 mg/kg/injection, schedule: Q04DX003 (ip), vehicle: saline 104 % of control

CC(C)(CO)N=Cc1cc(Cl)cc(Cl)c1O
inactive: dose: 75.0 mg/kg/injection, schedule: Q01DX001 (ip), vehicle: saline 102 % of control | dose: 150.0 mg/kg/injection, schedule: Q01DX001 (ip), vehicle: saline 101 % of control | dose: 300.0 mg/kg/injection, schedule: Q01DX001 (ip), vehicle: saline 109 % of control
